# Results as given in the supplement of paper PMC10599287.
# Legend:
# GDC-0623 = compound: O=C(NOCCO)c1ccc2cncn2c1Nc1ccc(I)cc1F [GDC-0623]; assay: absolute IC70 (antiproliferative, propidium iodide); higher = less potent; details: exposure time: 4 days
# Experimental: (§1)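 Modified propidium iodide survival/proliferation assay in 294 human tumor cell lines (2D monolayer for solid tumors, suspension for hematologic lines) after 4 days of continuous exposure to 10 concentrations in half-log steps from 0.001 to 30 µM. Absolute IC70 was fitted by four-parameter nonlinear regression of T/C × 100 (%) values; 30 µM is the top dose.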
# [1] = compound: CCNC(=O)C#Cc1ccc2c(C(=Nc3ccc(CN(C)C)cc3)c3ccccc3)c(O)[nH]c2c1; assay: as above; details: exposure time: 4 days
# Experimental: as §1
Test System,absolute IC70 (GDC-0623) [nM],absolute IC70 [1] [nM]
DETROIT562,> 30000,3090
PC-9,> 30000,622
PXF_698,> 30000,301
IM-9,15,7
MEXF_1829,19,90
HUP-T3,44,291
A2780,24400,546
UO-31,1620,527
MOLT-3,> 30000,6
SU-DHL-4,> 30000,220
KYSE-150,> 30000,2820
Calu-1,> 30000,3440
JIMT-1,> 30000,1900
PAXF_546,> 30000,12200
SK-BR-3,> 30000,4070
M059K,> 30000,1150
RH-41,> 30000,606
LOU-NH91,> 30000,2140
GP5d,> 30000,80.2
LXFA_923,> 30000,24400
MEC-1,> 30000,34
PXF_1752,> 30000,1860

Test System,absolute IC70 (GDC-0623) [nM],absolute IC70 [1] [nM]
FADU,> 30000,2260
THP-1,47,84
OVCAR-3,> 30000,26100
EVSA-T,> 30000,2240
JHH-6,> 30000,1140
OCI-AML3,< 1,6
OVCAR-4,> 30000,4280
GXF_251,3340,944
PA-TU-8902,> 30000,913
LEXFAL_2665,> 30000,223
U-2-OS,530,162
MEXF_462,7170,25
NUGC-4,8,329
CAL-51,> 30000,61
RXF_2282,> 30000,26
HT-29,87,392
HL-60,6,27
K-562,> 30000,2820
HT-115,57.6,14.4
BXF_1228,> 30000,3230
DU-145,1240,569
TE671,> 30000,1360

Test System,absolute IC70 (GDC-0623) [nM],absolute IC70 [1] [nM]
RAMOS,> 30000,507
LXFL_1121,> 30000,743
LN-229,102,281
LXFL_1072,16200,481
EFE-184,> 30000,3950
CXF_280,> 30000,1550
OCI-LY18,> 30000,494
MEG-01,8,20
DU-4475,4,9
BXF_1352,11,45
RXF_1781,7380,309
NCI-H727,23,325
MCF7,> 30000,281
RXF_486,239,816
LXFA_737,> 30000,225
KYSE-520,158,525
NALM-33,> 30000,7
GXA_3067,265,583
CAKI-1,> 30000,2360
MOLT-4,> 30000,4
Caco-2,> 30000,4760
COLO-205,17,14
